In US10183011B2, “Anti-depression compounds” (Board of Regents of the University of Texas System, priority 2009, dated 2019):

Experiments:
[1] = test system: G93A-SOD1 mutant mice; assay: Accelerating rotarod test in G93A-SOD1 mice, treatment from day 80; type: in vivo, mouse; settings: 20 mg/kg/day i.p. from day 80
Procedure: FIG. 35. P7C3A20 preserves performance in the accelerating rotarod test when administered at the time of disease onset to G93A-SOD1 mutant mice. Treatment of G93A-SOD1 mutant mice with 20 mg/kg/d of P7C3A20, P7C3 or Dimebon, or the appropriate vehicle, was initiated on day 80, with 20 mice per group. All compounds were administered at 20 mg/kg/day i.p. in divided doses. […] Only sibling pairs were analyzed at each time point. By week 16, there were 13 compound-vehicle pairs remaining in each group. […] All testing and analysis was performed blind to treatment group.
Having observed evidence of compound-mediated protection of spinal cord motor neurons, we next sought to determine whether motor performance might also be protected in these mice. Motor performance was monitored by the accelerating rotarod task standardly employed for evaluation of rodent models of ALS. We again initiated administration of P7C3, P7C3A20 or Dimebon on day 80, at 20 mg/kg/day, starting with no less than 20 mice per treatment group. Each animal in each group had its own sibling-matched vehicle control, and testing was conducted blind to treatment group. Rotarod training was initiated on day 50 for 2 days, and repeated weekly testing was conducted every 7 days thereafter. Each mouse was subjected to four trials of 600 seconds each, with a 20 minute recovery break between each trial. The latency time to fall was averaged across all 4 trials.
Beginning on day 50, mice were trained on the accelerating rotarod using Colombia Instruments Rotamex-5. Training consisted of mice being placed on a rotarod moving at 5 rpm for 300 seconds. Mice were trained to stay on the rotarod for the entire 300 seconds. If a mouse fell, it was placed back on the rotarod and the 300 second trial was started again. Training took place on two consecutive days. On day 52, mice ran their first full rotarod test, as described in Current Protocols for Neuroscience. The rotarod began at 4 rpm and accelerated to 40 rpm over 600 seconds, increasing by 1.25 rpm every 20 seconds. The time to fall was automatically recorded. […]

[2] = Plasma, brain and spinal cord levels in G93A-SOD1 study (LC/MS/MS); type: in vivo, mouse; settings: 20 mg/kg/day for 21 days; for spinal cord accumulation relative to other compound: six hours after last injection
Procedure: FIG. 37. Plasma, brain and spinal cord levels of P7C3A20, P7C3 and Dimebon. Five mice for each compound group were treated for 21 days with 20 mg/kg/day of the compound, starting on day 85. Blood, brain and spinal cord were harvested six hours after the last injection and compound levels were measured by LC/MS/MS. Concentrations are presented as mean±SEM.

[3] = test system: dopaminergic neurons in C. elegans; assay: MPP+ toxicity to dopaminergic neurons in C. elegans; type: in vivo; settings: for protection of dopaminergic neurons from MPP+: 10 μM, 5 mM MPP+ for 40 hrs
Procedure: FIG. 31. Neuroprotective efficacy of P7C3 and P7C3A20 for MPP^+ toxicity to dopaminergic neurons in C. elegans. Worms were treated with 5 mM MPP^+ for 40 hrs, with pre-incubation for 30 minutes with different concentrations of test compounds or vehicle. […] By contrast, GFP expression was lost after 40 hrs of MPP^+ exposure (unfilled arrow). […] 20 worms were analyzed per group, and each group was performed in triplicate. Data are expressed as mean±SEM.
Genes, metabolic signaling pathways, neurotransmitters and receptor pharmacology are highly conserved between C. elegans and vertebrates, and exposure of C. elegans to MPP^+ has been reported to selectively kill dopaminergic neurons and impair mobility. To investigate the neuroprotective efficacy of P7C3A20, P7C3 and Dimebon from MPP^+ toxicity in C. elegans, we monitored dopaminergic cell death in a transgenic strain of worms in which dopaminergic neurons fluoresce green by virtue of GFP expression driven by the dopaminergic neuron-specific promoter dat-1. […] Cephalic sensilla dopaminergic dendrites were observed under 40× magnification (AMG, Evos fl microscope), and GFP signal was followed from the nerve ring to the tip of the nose, following established protocols. If any part of a dendrite was absent, as evidenced by loss of GFP signal, it was counted as degraded. All analyses were performed blind to treatment group.
Synchronized L1 larvae were plated into each well of a 12-well plate (approximately 400 larvae per well) containing PBS, Vehicle or compounds, with or without 5 mM MPP^+ iodide (Sigma) freshly diluted in PBS. DMSO was used as vehicle (VEH) and the concentration in treatment groups was maintained below 1%. The assay solution ([…]) was incubated for 40 hrs at 20 degrees Celsius. The worms were then washed in dH2O and supernatant was aspirated. To examine dopaminergic neuron toxicity, worms were anesthetized (0.1% tricaine, 0.01% tetramizole) for 5 min and then transferred to microscope slides and coverslipped. Pictures were taken at 40× magnification (AMG, Evos fl microscope). Each experiment was conducted in triplicate with 10-20 worms counted per condition. For quantification, investigators were blind to treatment condition. Quantification was done by observing all four cephalic sensilla (CEP) dendrites, per standard protocol. Briefly, GFP fluorescence was visualized from the nerve ring to the tip of the nose, and if any portion of a dendrite was absent then it was counted as being degenerated.

SMILES | accelerating rotarod performance [1] | entry into brain and spinal cord [2] | spinal cord accumulation relative to other compound [2] | protection of dopaminergic neurons from MPP+ [3] | onset of neuroprotective efficacy ([3]; 0.1 μM) | onset of neuroprotective efficacy ([3]; 1.0 μM)
Cc1ccc2c(c1)c1c(n2CCc2ccc(C)nc2)CCN(C)C1 [Dimebon, 2,3,4,5-Tetrahydro-2,8-dimethyl-5-(2-(6-methyl-3-pyridyl)ethyl)-1H-pyrido(4,3-b)indole, reference compound] | insufficiently active to preserve motor function | able to enter both the brain and spinal cord | comparable levels of spinal cord accumulation to P7C3A20 | failed to protect dopaminergic neurons | – | –
COc1cccc(NCC(F)Cn2c3ccc(Br)cc3c3cc(Br)ccc32)c1 (stereo not shown) [Example P7C3A20, N-(3-(3,6-dibromo-9H-carbazol-9-yl)-2-fluoropropyl)-3-methoxyaniline] | showed significantly better performance | able to enter both the brain and spinal cord | less than one-twentieth the concentration of P7C3 | 80% | 30% | –
OC(CNc1ccccc1)Cn1c2ccc(Br)cc2c2cc(Br)ccc21 (stereo not shown) [Example P7C3] | insufficiently active to preserve motor function | able to enter both the brain and spinal cord | – | about 50% | – | 35%
